What was measured:
[1] = Effect of concentration on the stability of the solution (purity over time); conditions: in water at 25° C.
[2] = Effect of temperature (and pH) on the stability of the solution (purity); format: physicochemical; conditions: 7% solution in water

SMILES: CCN(CC)CCOC(=O)CCc1ccc2cc(OC)ccc2c1.Cl [2-(diethylamino)ethyl 3-(6-methoxy-2-naphthyl)propionate•HCl]
- Purity at Day 3 ([1]; 0.01 wt %): 84.7%
- Purity at Day 7 ([1]; 0.01 wt %): 73.9%
- Purity at Day 14 ([1]; 0.01 wt %): 62.3%
- Purity at Day 21 ([1]; 0.01 wt %): 53.9%
- Purity at Day 28 ([1]; 0.01 wt %): 45.9%
- Purity at hr 0 ([1]; 0.01 wt %): 97.7%
- Purity at Day 3 ([1]; 0.1 wt %): 96.7%
- Purity at Day 7 ([1]; 0.1 wt %): 95.5%
- Purity at Day 14 ([1]; 0.1 wt %): 91.1%
- Purity at Day 21 ([1]; 0.1 wt %): 87.2%
- Purity at Day 28 ([1]; 0.1 wt %): 83.8%
- Purity at hr 0 ([1]; 0.1 wt %): 97.9%
- Purity at Day 3 ([1]; 1 wt %): 97.0%
- Purity at Day 7 ([1]; 1 wt %): 96.0%
- Purity at Day 14 ([1]; 1 wt %): 94.0%
- Purity at Day 21 ([1]; 1 wt %): 92.3%
- Purity at Day 28 ([1]; 1 wt %): 90.9%
- Purity at hr 0 ([1]; 1 wt %): 98.1%
- Purity at Day 3 ([1]; 3 wt %): 97.7%
- Purity at Day 7 ([1]; 3 wt %): 97.0%
- Purity at Day 14 ([1]; 3 wt %): 96.0%
- Purity at Day 21 ([1]; 3 wt %): 94.8%
- Purity at Day 28 ([1]; 3 wt %): 93.8%
- Purity at hr 0 ([1]; 3 wt %): 98.3%
- Purity at Day 3 ([1]; 5 wt %): 98.2%
- Purity at Day 7 ([1]; 5 wt %): 98.0%
- Purity at Day 14 ([1]; 5 wt %): 97.6%
- Purity at Day 21 ([1]; 5 wt %): 97.0%
- Purity at Day 28 ([1]; 5 wt %): 96.3%
- Purity at hr 0 ([1]; 5 wt %): 98.4%
- Purity at Day 3 ([1]; 7 wt %): 98.4%
- Purity at Day 7 ([1]; 7 wt %): 98.2%
- Purity at Day 14 ([1]; 7 wt %): 98.0%
- Purity at Day 21 ([1]; 7 wt %): 97.8%
- Purity at Day 28 ([1]; 7 wt %): 97.4%
- Purity at hr 0 ([1]; 7 wt %): 98.5%
- Purity at Day 3 ([1]; 8 wt %): 98.4%
- Purity at Day 7 ([1]; 8 wt %): 98.3%
- Purity at Day 14 ([1]; 8 wt %): 98.0%
- Purity at Day 21 ([1]; 8 wt %): 97.9%
- Purity at Day 28 ([1]; 8 wt %): 97.5%
- Purity at hr 0 ([1]; 8 wt %): 98.4%
- Purity at Day 3 ([1]; 10 wt %): 98.4%
- Purity at Day 7 ([1]; 10 wt %): 98.3%
- Purity at Day 14 ([1]; 10 wt %): 98.2%
- Purity at Day 21 ([1]; 10 wt %): 98.0%
- Purity at Day 28 ([1]; 10 wt %): 97.5%
- Purity at hr 0 ([1]; 10 wt %): 98.5%
- Purity at Day 3 ([1]; 15 wt %): 98.4%
- Purity at Day 7 ([1]; 15 wt %): 98.2%
- Purity at Day 14 ([1]; 15 wt %): 98.1%
- Purity at Day 21 ([1]; 15 wt %): 98.0%
- Purity at Day 28 ([1]; 15 wt %): 97.6%
- Purity at hr 0 ([1]; 15 wt %): 98.5%
- Purity at Day 3 ([1]; 20 wt %): 98.4%
- Purity at Day 7 ([1]; 20 wt %): 98.2%
- Purity at Day 14 ([1]; 20 wt %): 98.2%
- Purity at Day 21 ([1]; 20 wt %): 98.1%
- Purity at Day 28 ([1]; 20 wt %): 97.5%
- Purity at hr 0 ([1]; 20 wt %): 98.4%
- Purity at Day 3 ([1]; 30 wt %): 98.4%
- Purity at Day 7 ([1]; 30 wt %): 98.3%
- Purity at Day 14 ([1]; 30 wt %): 98.1%
- Purity at Day 21 ([1]; 30 wt %): 98.1%
- Purity at Day 28 ([1]; 30 wt %): 97.5%
- Purity at hr 0 ([1]; 30 wt %): 98.5%
- Purity at Day 3 ([1]; 50 wt %): 98.5%
- Purity at Day 7 ([1]; 50 wt %): 98.3%
- Purity at Day 14 ([1]; 50 wt %): 98.1%
- Purity at Day 21 ([1]; 50 wt %): 97.8%
- Purity at Day 28 ([1]; 50 wt %): 97.6%
- Purity at hr 0 ([1]; 50 wt %): 98.5%
- Stability when the concentration is 0.1% or lower [1]: not stable
- Stability of the solution at a temperature higher than 40° C. and a pH lower than 3 or greater than 6 [2]: not stable

SMILES: CCN(CC)CCOC(=O)CCc1nc(-c2ccccc2)c(-c2ccccc2)o1.Cl [2-(diethylamino)ethyl 4,5-diphenyl-2-oxazolepropionate•HCl]
- Purity at Day 3 ([1]; 0.01 wt %): 83.8%
- Purity at Day 7 ([1]; 0.01 wt %): 73.9%
- Purity at Day 14 ([1]; 0.01 wt %): 58.9%
- Purity at Day 21 ([1]; 0.01 wt %): 47.6%
- Purity at Day 28 ([1]; 0.01 wt %): 38.9%
- Purity at hr 0 ([1]; 0.01 wt %): 97.8%
- Purity at Day 3 ([1]; 0.1 wt %): 94.7%
- Purity at Day 7 ([1]; 0.1 wt %): 90.6%
- Purity at Day 14 ([1]; 0.1 wt %): 83.5%
- Purity at Day 21 ([1]; 0.1 wt %): 75.7%
- Purity at Day 28 ([1]; 0.1 wt %): 65.5%
- Purity at hr 0 ([1]; 0.1 wt %): 97.9%
- Purity at Day 3 ([1]; 1 wt %): 95.3%
- Purity at Day 7 ([1]; 1 wt %): 92.9%
- Purity at Day 14 ([1]; 1 wt %): 88.9%
- Purity at Day 21 ([1]; 1 wt %): 84.6%
- Purity at Day 28 ([1]; 1 wt %): 79.2%
- Purity at hr 0 ([1]; 1 wt %): 98.0%
- Purity at Day 3 ([1]; 3 wt %): 96.3%
- Purity at Day 7 ([1]; 3 wt %): 95.1%
- Purity at Day 14 ([1]; 3 wt %): 92.5%
- Purity at Day 21 ([1]; 3 wt %): 89.0%
- Purity at Day 28 ([1]; 3 wt %): 85.7%
- Purity at hr 0 ([1]; 3 wt %): 98.4%
- Purity at Day 3 ([1]; 5 wt %): 98.2%
- Purity at Day 7 ([1]; 5 wt %): 97.8%
- Purity at Day 14 ([1]; 5 wt %): 97.0%
- Purity at Day 21 ([1]; 5 wt %): 96.3%
- Purity at Day 28 ([1]; 5 wt %): 95.0%
- Purity at hr 0 ([1]; 5 wt %): 98.5%
- Purity at Day 3 ([1]; 7 wt %): 98.6%
- Purity at Day 7 ([1]; 7 wt %): 98.2%
- Purity at Day 14 ([1]; 7 wt %): 98.0%
- Purity at Day 21 ([1]; 7 wt %): 97.7%
- Purity at Day 28 ([1]; 7 wt %): 97.4%
- Purity at hr 0 ([1]; 7 wt %): 98.8%
- Purity at Day 3 ([1]; 8 wt %): 98.7%
- Purity at Day 7 ([1]; 8 wt %): 98.3%
- Purity at Day 14 ([1]; 8 wt %): 97.9%
- Purity at Day 21 ([1]; 8 wt %): 97.7%
- Purity at Day 28 ([1]; 8 wt %): 97.5%
- Purity at hr 0 ([1]; 8 wt %): 98.7%
- Purity at Day 3 ([1]; 10 wt %): 98.6%
- Purity at Day 7 ([1]; 10 wt %): 98.5%
- Purity at Day 14 ([1]; 10 wt %): 98.2%
- Purity at Day 21 ([1]; 10 wt %): 97.8%
- Purity at Day 28 ([1]; 10 wt %): 97.4%
- Purity at hr 0 ([1]; 10 wt %): 98.8%
- Purity at Day 3 ([1]; 15 wt %): 98.7%
- Purity at Day 7 ([1]; 15 wt %): 98.4%
- Purity at Day 14 ([1]; 15 wt %): 98.1%
- Purity at Day 21 ([1]; 15 wt %): 97.9%
- Purity at Day 28 ([1]; 15 wt %): 97.5%
- Purity at hr 0 ([1]; 15 wt %): 98.8%
- Purity at Day 3 ([1]; 20 wt %): 98.7%
- Purity at Day 7 ([1]; 20 wt %): 98.5%
- Purity at Day 14 ([1]; 20 wt %): 98.2%
- Purity at Day 21 ([1]; 20 wt %): 97.8%
- Purity at Day 28 ([1]; 20 wt %): 97.5%
- Purity at hr 0 ([1]; 20 wt %): 98.7%
- Purity at Day 3 ([1]; 30 wt %): 98.7%
- Purity at Day 7 ([1]; 30 wt %): 98.5%
- Purity at Day 14 ([1]; 30 wt %): 98.3%
- Purity at Day 21 ([1]; 30 wt %): 97.9%
- Purity at Day 28 ([1]; 30 wt %): 97.6%
- Purity at hr 0 ([1]; 30 wt %): 98.8%
- Purity at Day 3 ([1]; 50 wt %): 98.7%
- Purity at Day 7 ([1]; 50 wt %): 98.5%
- Purity at Day 14 ([1]; 50 wt %): 98.2%
- Purity at Day 21 ([1]; 50 wt %): 97.8%
- Purity at Day 28 ([1]; 50 wt %): 97.5%
- Purity at hr 0 ([1]; 50 wt %): 98.8%
- Stability when the concentration is 0.1% or lower [1]: not stable
- Stability of the solution at a temperature higher than 40° C. and a pH lower than 3 or greater than 6 [2]: not stable

Reference: patent US20230157952A1, “METHOD FOR IMPROVING THE STABILITY OF A PHARMACEUTICAL COMPOSITION COMPRISING A HIGH PENETRATION DRUG, AND THE PHARMACEUTICAL COMPOSITION OBTAINED THEREFROM” (Techfields Inc., priority 2020, published 2023)
